Results published in US11160871B2, “SSTR-targeted conjugates and particles and formulations thereof” (TARVEDA THERAPEUTICS, INC., priority 2015, dated 2021).

Experiments:
[1] = tested on: NCI-H524 human small cell lung cancer cells; test: cells; assay type: cell-based; conditions: NCI-H524 proliferation
Summary of the method: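 NCI-H524 cells (5,000/well) exposed to conjugate for 2 h, washed, then grown 70 h more; competition wells had 100 μM octreotide for 30 min first. Ten-point threefold dilutions from 20 μM. CellTiter Glo luminescence gave % inhibition versus vehicle; four-parameter IC50 fit.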

NCI-H69 SCLC tumors = test: H69 tumor DM-1 levels by LC/MS-MS; assay type: in vivo, mice; conditions: 1 mg/kg; 24 hour time point
Procedure: To examine the ability of conjugates of the present invention to accumulate in tumors, a murine cancer model was used. All mice were treated in accordance with the OLAW Public Health Service Policy on Human Care and Use of Laboratory Animals and the ILAR Guide for the Care and Use of Laboratory Animals. All in vivo studies were conducted following the protocols approved by the Blend Therapeutics Institutional Animal Care and Use Committee. Animals were inoculated with 2.5×10^6 NCI-H69 SCLC (small cell lung cancer) cells in 1:1 RPMI 1640 (Invitrogen, Carlsbad, Calif.)/Matrigel® (BD Biosciences, San Jose, Calif.) via subcutaneous injection to the right flank. Tumors were allowed to reach an approximate volume of ˜500 mm3. Animals were then randomized into treatment groups of 3 animals per time point and were dosed at 1 mg/kg (10% propylene glycol in water for injection for free conjugates, or 10% sucrose for nanoparticles), or 0.4 mg/kg for DM-1 (10% propylene glycol in water for injection). The 24 hour time point was used as a benchmark across conjugates.
Tumor DM-1 levels were determined by liquid chromatography mass spectrometry (LC/MS-MS). Four volumes of 5 mM 6-maleimidohexanoic acid to 1 part tumor v/w was added and homogenized for about 10-15 seconds with a handheld homogenizer. 10 μL of 500 mM Tris(2-carboxyethyl)phosphine was added to 100 uL of tumor homogenate, mixed well and incubated at room temperature for about 5-15 min. 200-300 uL of acetonitrile was used to precipitate proteins in tumor homogenate, samples were centrifuged for 5 min, and supernatant was injected onto LC/MS-MS system for DM-1 analysis.

[2] = NCI-H524 small cell lung cancer model, tumor volume and body weight; assay type: in vivo; conditions: in vivo; read-out: maximum tolerated dose (MTD)
Text: (§1) NCI-H524 over expresses SSTR2. […] There was minimal body weight loss and favorable toxicology.

[3] = tested on: NCI-H524 small cell lung cancer model; test: as above; assay type: in vivo
Text: as §1

[4] = Single dose exploratory toxicity study; assay type: in vivo, SD female rat
Procedure: Single dose exploratory toxicity studies in SD female rat (dose 0.5 mg/kg to 1.5 mg/kg) for 7-10 days were carried out. Clinical observations, body weight, clinical blood chemistry, histopathology, and complete blood counts were assessed. In the 10-day study, DM1 (0.4 mg/kg) was compared to Conjugate 57 at an equivalent dose of DM1 (1.0 mg/kg of conjugate) and at a 50% higher dose (1.5 mg/kg of conjugate).
Decreased white blood cell (WBC) count is a known dose limiting toxicity of DM1. WBC count was tracked in all groups.
Liver toxicity is also a know dose limiting toxicity of DM1. Alanine transaminase (ALT) and aspartate aminotransferase (AST) are markers of liver toxicity and were measured in all groups.

H69 tumors = test: H69 model tumor growth inhibition; assay type: in vivo
passage 3 IMR-32 tumors = test: IMR-32 tumor model; assay type: in vivo, mice
Procedure: Further, mice bearing passage 3 IMR-32 tumors were dosed with Conjugate 57 either at 2.0 mg/kg or 1.5 mg/kg once a week for two weeks with a vehicle negative control. […] The 1.5 mpk group only lost an average of 2.0%. All mice recovered once dosing was complete.

SSTR2 = SSTR2 (Homo sapiens, UniProt P30874); test: SSTR2 receptor internalization in H524-MD tumor xenograft (IHC); assay type: in vivo; design: expressed in transfected cells
Procedure: SSTR2 receptor internalization was studied using Conjugate 57 in a highly expressing SSTR2 positive (SSTR2+) tumor xenograft: H524_MD tumor xenograft. Vehicle (0.1% Solutol/5% Mannitol), Conjugate 57 at 2 mg/kg, scrambled control (BT-984) at 2 mg/kg, and Octreotide at 1.4 mg/kg (ligand alone) were given to SSTR2+H524-MD tumor xenografts (n=3/group). Timepoints—0 hr (Vehicle), 15 mins, 1 hr, 4 hr, 24 hr and 72 hrs. SSTR2 scoring was done by immunohistochemistry (IHC) staining.

[5] = 2 mg/kg, H524-MD tumor xenografts

Chain of SSTR2 (P30874 whole entry): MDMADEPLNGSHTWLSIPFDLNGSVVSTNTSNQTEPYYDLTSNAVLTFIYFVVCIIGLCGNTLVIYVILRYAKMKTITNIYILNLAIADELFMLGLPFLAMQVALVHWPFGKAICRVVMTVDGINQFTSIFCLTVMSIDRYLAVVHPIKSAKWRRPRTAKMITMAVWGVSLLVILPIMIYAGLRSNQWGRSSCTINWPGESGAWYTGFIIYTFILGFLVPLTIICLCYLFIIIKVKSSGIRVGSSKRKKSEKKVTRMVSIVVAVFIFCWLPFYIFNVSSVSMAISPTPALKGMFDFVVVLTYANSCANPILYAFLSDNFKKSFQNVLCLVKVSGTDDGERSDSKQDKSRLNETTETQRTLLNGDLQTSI

COc1cc2cc(c1Cl)N(C)C(=O)C[C@H](OC(=O)[C@H](C)N(C)C(=O)CCSSC[C@H](NC(=O)[C@@H]1CSSC[C@H](NC(=O)[C@H](N)Cc3ccccc3)C(=O)N[C@@H](Cc3ccc(O)cc3)C(=O)N[C@H](Cc3c[nH]c4ccccc34)C(=O)N[C@@H](CCCCN)C(=O)N[C@@H]([C@@H](C)O)C(=O)N1)C(N)=O)[C@]1(C)O[C@H]1[C@H](C)[C@@H]1C[C@@](O)(NC(=O)O1)[C@H](OC)/C=C/C=C(\C)C2 [Conjugate 57]
difference in IC50 with or without octreotide competition [1]: 12.2 fold | H69 tumor DM-1 levels (NCI-H69 SCLC tumors): 243 nM | MTD [2]: 2 mg/kg | tumor response (mean tumor volume) ([3]; 2 mg/kg (MTD) and 1 mg/kg): complete tumor regressions | tolerability (mean body weight change) ([3]; in vivo): well tolerated | AST and ALT ([4]; 1.0 mg/kg): no effects on AST and ALT | Day 5 weight change (%) ([4]; 1.0 mg/kg): −0.73% | Day 10 weight change (%) ([4]; 1.0 mg/kg): +1.8% | complete blood count (CBC) and WBC count ([4]; 1.0 mg/kg and […]): no significant changes in complete blood count (CBC) and WBC count | tolerability ([4]; 1.0 and […] versus DM1 0.4 mg/kg, 10-day study): significantly improved tolerability versus DM1 | TGI % Day 8 (H69 tumors; Conjugate 57 1 mg/kg): 50.1% | TGI % Day 11 (H69 tumors; Conjugate 57 1 mg/kg): 61.4% | TGI % Day 14 (H69 tumors; Conjugate 57 1 mg/kg): 60.4% | TGI % Day 19 (H69 tumors; Conjugate 57 1 mg/kg): 63% | TGI % Day 22 (H69 tumors; Conjugate 57 1 mg/kg): 58.4% | TGI % Day 8 (H69 tumors; Conjugate 57 2 mg/kg): 63.8% | TGI % Day 11 (H69 tumors; Conjugate 57 2 mg/kg): 82.8% | TGI % Day 14 (H69 tumors; Conjugate 57 2 mg/kg): 87.9% | TGI % Day 19 (H69 tumors; Conjugate 57 2 mg/kg): 95.5% | TGI % Day 22 (H69 tumors; Conjugate 57 2 mg/kg): 97.8% | average body weight loss after the second dosing event (passage 3 IMR-32 tumors; 2.0 mg/kg once a week for two weeks): 8.0% | mice showing complete regression (passage 3 IMR-32 tumors; both treatment groups, 2.0 mg/kg or […] once a week for two weeks): 10 out of 10 | SSTR2 internalization distribution of staining (SSTR2; [5]): significantly different results from BT-984 and naïve at 4 hr, 24 hr, and 72 hours | SSTR2 receptor internalization intensity of staining (SSTR2; [5]): significantly different results from scrambled peptide version of compound 57 (BT-984) and naïve at 1 hr, 4 hr, and 72 hours | SSTR2 internalization compared with octreotide (SSTR2; Conjugate 57 2 mg/kg, Octreotide 1.4 mg/kg): caused more SSTR2 internalization than octreotide alone
